These results are taken from PMC6452685, “Lysyl-tRNA synthetase as a drug target in malaria and cryptosporidiosis” (Proceedings of the National Academy of Sciences of the …, 2019).

One data set has as its system C. parvum Iowa strain. As to the kind of experiment: In vitro inhibition of Cryptosporidium, C. parvum Iowa in HCT-8 cells (imaging). The data set is classed as cell-based. The settings on record: HCT-8, read-out: C. parvum Iowa strain EC50.
Another data set deals with PfKRS1 (Plasmodium falciparum, UniProt Q8IDJ8). As to the kind of experiment: PfKRS1 mode of inhibition, pyrophosphate generation (EnzChek). Format: biochemical. More on the design: recombinant PfKRS1 (77–583 and 80–583); His (N); MBP (with TEV site) (N); made in house; host or cells: E. coli BL21 (DE3); codon-optimised gene from Genscript. The protocol:
SUPPLEMENTARY INFORMATION glycerol pH 7.5/protease inhibitor tablets/DNAase) was added and the pellets for defrosted at room temperature for approximately 10 min. The slurry was then passed through a Cell Disrupter (Constant Systems) set at 30 KPSI to l yse the cel ls. The s ample w as t hen cent ri fug ed at 40, 000g for 2 0 mi n. The supernatant was then filtered using syringe filters to 0.45 µm. The s upernat ant w as l oaded ont o a 5 ml Hi Trap Ni HP col umn that had been eq ui l i brated wi th Buffer A (25 m M HEP ES /5 00 m M NaC l /2 0 mM Imi dazol e/2 mM DTT/10% Gl ycerol pH 7.5) at 5 ml /mi n usi ng an AKTA Pure system. Once l oaded the column was washed with 10 column volumes buffer A. A 5% step of Buf fer B (25 mM HEPES /50 0 mM NaC l /500 mM I mi daz ol e/2mM D TT/ 10% Glycerol pH 7.5) was then used to wash off His rich contami nati ng protei ns . […]
2.5 PfKR S1, CpKRS and HsKR S Pyr oph osphate Ge ne r ation EnzChe kTM Ki ne tic M e asur e me nts Steady-state kinetic measurements were conduc ted at room temperature using a PheraStar plate re a de r (BM G ). End-poi nt s fo r t he ami noacy l at i on react i on of PfKRS1, which produces inorganic py roph os phat e t hat i s conv ert ed t o t w o mol ecules of i norg ani c phos phat e us i ng a py rophos phat as e enzyme, were measured usi ng the EnzChek™ Pho sphate Assay Ki t, whi ch gives an absorbance read - out at 36 0 nm. […] The reaction was carried out for 6 h (PfKRS1 an d CpKRS) or 1 2 h (HsKRS) at ro om temperature and then the absorbance o f each wel l was read at 360 nm. The s ubs t rat es Km values were determined by varying the concentration of one of the substrates at saturati ng concentrati on of the othe r. […]
where V is the maximal velocity (here expressed as µM/min of phosphate production), S is the substrate concentration a nd K is the Michaelis constant for the substrate (Km). […]

The nature of data set [1]: Hepatocyte stability, human. Format: in vitro ADME. The protocol:
SUPPLEMENTARY INFORMATION where V (ml/mg protein) is the incubation volume/mg protein added (0.5) and microsomal protein yield is taken as being 52.5 mg protein per g liver. Verapami l (0. 5 µ M ) w as us ed as a pos i t i v e cont rol to confirm ac ceptable assay performance. Ex peri ments were performed us i ng a s i ngl e ti me-cours e […]
4.5 He pat ocy t e s t abilit y
Cryopreserved hepatocytes were used to take non-CYP mediated Phase I and Phase II enzymes into […]
than those determined using li v e r mi crosomes or other subcellular liver fractions and could be mo re predi ct i v e of a met abol i c rat e det ermi ned in vivo.
Cryopreserved mouse (batch MC539) and huma n (batch HU E50H) hepatocytes were supplied by ThermoFi sher Sci enti fi c, Pai sl ey, UK and Xenotech, LLC, respectively. Cryopreserved hepatocytes were rapidly thawed in a pre-heat ed w at er bat h at 37 °C before ad di ng to 50 ml of pre-warmed CHRM medi a (ThermoFi sher Sci enti fi c, Paisley, UK) and mi xed gentl y. […] […] 5 mi l li on v i abl e cel l s /ml i n s uppl emented W ME. Onl y s us pens i ons whi ch ac hi ev ed >80% pos t-thaw viability were us ed i n ex peri ment s . […]
DMSO and 0.25 million cells/ml. […]

The test system of another data set is P. falciparum. As to the kind of experiment: In vivo antimalarial efficacy in P. falciparum-infected SCID mice engrafted with human erythrocytes. The settings on record: SCID mouse, orally once a day for 4 d.

Sequence of PfKRS1 (Q8IDJ8 entry or part of it): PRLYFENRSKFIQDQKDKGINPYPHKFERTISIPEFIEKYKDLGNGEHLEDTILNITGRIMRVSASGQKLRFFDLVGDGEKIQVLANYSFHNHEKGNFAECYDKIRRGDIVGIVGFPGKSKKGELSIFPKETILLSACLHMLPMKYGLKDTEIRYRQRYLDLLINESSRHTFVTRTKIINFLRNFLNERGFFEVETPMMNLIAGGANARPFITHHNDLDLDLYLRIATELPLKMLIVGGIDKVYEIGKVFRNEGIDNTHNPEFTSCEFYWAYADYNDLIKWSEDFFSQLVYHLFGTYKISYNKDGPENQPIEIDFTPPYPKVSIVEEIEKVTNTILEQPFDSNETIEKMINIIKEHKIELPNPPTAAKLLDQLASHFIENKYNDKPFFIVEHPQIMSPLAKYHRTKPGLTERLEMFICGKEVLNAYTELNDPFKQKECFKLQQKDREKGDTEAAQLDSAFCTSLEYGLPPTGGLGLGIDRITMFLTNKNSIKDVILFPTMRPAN
From the text for P. falciparum: The l ev el of each comp ound i n mouse bl ood was determi ned by UPLC -MS/MS as previously re port e d (18). Pharmacokinetic parameters were derived from the blood c oncent ration time curve usi ng PKsol uti ons software v 2.0 (Summi t Research Servi ces, USA).
The mi ce were i ntrav enous l y i nfected with 2×107 P. fa l ci p a rum Pf3D700 87/ N9-infected erythrocytes (day 0). On day 3 after infection, mice (n=2) were rand oml y al l ocated to treatments that were admi nis tered once a day for 4 cons ecuti v e day s by oral g av ag e at 10 ml/k g.
The compo und c onc entrati on v ers us ti me data were anal yzed by non-compartmental anal ysi s (NCA) usi ng Phoeni xR Ve rsi on 6.3 (Pha rsi ght Corporati on, M ountai n Vi ew, CA, USA).
Femal e i mmunodefi ci ent NOD-sc i d I L-2Rγnull mi ce (NSG) (Charl es Ri v er, France) of 25-28 g r b ody w ei g ht w ere hou s ed i n The A rt of D i s cov ery ani mal faci li t y at BIC

With `O=C(NCC1(O)CCC(F)(F)CC1)c1cc(=O)c2cc(F)ccc2o1` [Compound 5], the EC50 (in general, the concentration at which the effect is half-maximal) with C. parvum Iowa strain was 1.3 µM. In addition, the “Ki, linear uncompetitive inhibition vs. L-lysine” value at PfKRS1 (EnzChek, saturating ATP) amounted to 0.212 µM. For the same molecule, the Ki (commonly a measure of affinity in units of concentration, obtained from inhibition or displacement) on PfKRS1 (EnzChek, saturating L-lysine, read-out: Ki, linear competitive inhibition vs. ATP) was 0.032 µM. Besides, the IC50 (usually the concentration at which inhibition is half-maximal) on PfKRS1 (saturating concentrations of both substrates) amounted to 0.21 µM. Besides, the “Hepatocyte stability CLint” value in data set [1] is given as 0.5 (mouse), <0.5 (human) mL⋅min^−1⋅g^−1. Further, in the data set on P. falciparum, the “AUCED90, estimated daily exposure in blood reducing parasitemia by 90% at day 5” value was 11,000 ng⋅h⋅ml^−1⋅d^−1 and the “ED90, daily oral dose reducing parasitemia by 90% at day 5” value came to 1.5 mg⋅kg^−1.
